Data: patent US8648195B2, “Stabilized crystal of 2-ethyl-3,7-dimethyl-6-(4-(trifluoromethoxy)phenoxy)quinoline-4-yl methyl carbonate, process for producing the crystal, and agricultural chemical composition comprising the crystal” (priority 2010, dated 2014)

How the values were obtained:
[1] = tested on: Lepidoptera, Hemiptera, Coleoptera, Acari, Hymenoptera, Orthoptera, Diptera, and Order Thysanoptera; details: patent documents 5 and 6; cited from earlier work
[2] = Storage test of aqueous suspension formulations (54° C., 2 weeks): particle size and properties; format: physicochemical; details: conclusion from storage test
Experimental: The aqueous suspension formulations of Example 2 and Comparative Example 1 were stored at 54° C. for 2 weeks, and a change in quality between before and after the storage was observed. The size of crystals before and after the storage test was measured with a laser diffraction particle size distribution measuring apparatus and under an optical microscope. [Measurement with Laser Diffraction Particle Size Distribution Measuring Apparatus] Apparatus used: Laser diffraction particle size distribution measuring apparatus SALD-2200 manufactured by Shimadzu Corp The floable formulation diluted with water after the storage test was used for the measurement of particle size with the above measuring apparatus. The A crystal form after the storage could not be suspended in water, and, thus, instead of the suspension, before use in test, was exposed to ultrasonic waves until coarse particle nuclei disappeared. [Measurement Under Optical Microscope] Apparatus used: Digital microscope VHX-200 manufactured by Keyence Corp. Images of the water-diluted floable formulations after the storage test were taken with the apparatus (magnification: 1500 times). The major axes of crystals in the images were measured, and the average was calculated. […]

| Physicochemical and storage stability of the crystal form [2] | SMILES | Insecticidal activity [1] |
| --- | --- | --- |
| – | CCc1nc2cc(C)c(Oc3ccc(OC(F)(F)F)cc3)cc2c(OC(=O)OC)c1C [Compound I, 2-Ethyl-3,7-dimethyl-6-(4-(trifluoromethoxy)phenoxy)-quinoline-4-yl methyl carbonate] | high insecticidal activity |
| high storage stability | CCc1nc2cc(C)c(Oc3ccc(OC(F)(F)F)cc3)cc2c(OC(=O)OC)c1C [Example 1, 2-ethyl-3,7-dimethyl-6-(4-(trifluoromethoxy)phenoxy)quinoline-4-yl methyl carbonate] | – |
